Patent US20060234906A1, “Structure of a complex of retinoblastoma protein bound to e2f, and uses thereof” (priority 2002, published 2006)
Residues, ends and D or L forms follow the SMILES beside them. *: point of attachment. 5FAM = O=C1OC2(c3ccc(O)cc3Oc3cc(O)ccc32)c2ccc(C(=O)*)cc21

What was measured:
pRb [1] = target: T1, pRb (Homo sapiens, UniProt P06400); assay: Competition experiment (Ni column, SDS-PAGE): E2F(409-426) against E2F(243-437) for binding to pRb; details: qualitative competition experiment
T1 construct: His6-RbAB (residues 376-792); made in house
T1 sequence (P06400 376-792): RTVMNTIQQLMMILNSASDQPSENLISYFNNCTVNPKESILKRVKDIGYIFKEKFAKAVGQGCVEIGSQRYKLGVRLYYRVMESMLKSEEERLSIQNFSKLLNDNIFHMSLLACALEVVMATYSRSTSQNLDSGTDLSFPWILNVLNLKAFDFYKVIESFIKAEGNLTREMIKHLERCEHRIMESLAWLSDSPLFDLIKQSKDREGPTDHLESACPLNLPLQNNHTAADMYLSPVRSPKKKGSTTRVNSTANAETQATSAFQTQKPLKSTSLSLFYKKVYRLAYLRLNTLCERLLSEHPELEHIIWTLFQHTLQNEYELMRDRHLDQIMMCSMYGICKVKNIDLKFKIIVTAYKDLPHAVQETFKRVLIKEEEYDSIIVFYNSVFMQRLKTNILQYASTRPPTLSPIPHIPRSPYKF
Text: The proteins used in these experiments were His6-RbABC (RESIDUES 380-929); MW 66.07 kDa, non-tagged RbAB (residues 372-787); MW 48.67 KDa, are His6-RbAB (residues 376-792); MW 49.86 KDa, E2F(243-437); MW 21.45 KDa HPV E7 (residues 17-98); MW 9.38 KDa and E2F(409-426); MW 2.12 KDa. Protein concentrations were carefully determined by u.v. spectroscopy and confirmed by ITC titrations. The small acidic E2F proteins stain much weaker than Rb with Coomassie on SDS-PAGE. For all gel lanes contained a final RbAB concentration of ca. 7 μM. After equilibration with E2F(243-437) and E2F(409-426) the samples were loaded onto a 1.0 ml Ni column and washed with 7×0.5 ml of loading buffer (50 mM Tris pH 7.5, 200 mM NaCl & 10 mM Imidazole). The samples were then eluted with 7×0.5 ml elution buffer (50 mM Tris, pH 7.5, 200 mM NaCl, 200 mM Imidazole). After volume correction samples were boiled in SDS loading buffer and run on a 4-12% SDS PAGE. For the two pRb proteins and E2F(243-437) were mixed at 40 μM in a final volume of 0.5 ml. After equilibration for 2 hrs the mixture was loaded onto 1 ml Ni beads in a small column, washed with 7×0.5 ml of loading buffer (50 mM Tris, pH 7.5, 200 mM NaCl, 10 mM Imidazole), eluted using 7×0.5 ml elution buffer (50 mM Tris, pH 7.5, 200 mM NaCl, 200 mM Imidazole). Samples, after correcting for volume were boiled in SDS sample buffer and run on a 4-12% SDS gel.

pRb/Fl-E2F = target: T2, pRb/Fl-E2F (Homo sapiens, UniProt P06400); assay: Fluorescence polarization displacement binding, Fl-E2F bound to pRb; details: fluoro-tagged peptide 400 nM pre-incubated with pRb 1 μM
T2 sequence (P06400 373-771 limits assumed): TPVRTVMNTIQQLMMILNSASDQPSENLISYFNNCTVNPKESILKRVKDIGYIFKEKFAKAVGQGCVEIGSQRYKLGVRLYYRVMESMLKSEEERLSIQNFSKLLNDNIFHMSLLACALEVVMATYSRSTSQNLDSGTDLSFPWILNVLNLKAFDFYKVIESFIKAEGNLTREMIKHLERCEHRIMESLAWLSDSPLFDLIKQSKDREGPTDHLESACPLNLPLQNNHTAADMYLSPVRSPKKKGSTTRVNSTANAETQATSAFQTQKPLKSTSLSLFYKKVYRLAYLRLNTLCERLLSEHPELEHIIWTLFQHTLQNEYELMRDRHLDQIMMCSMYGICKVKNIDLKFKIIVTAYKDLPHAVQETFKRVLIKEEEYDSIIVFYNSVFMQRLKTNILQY
Experimental: (§1) Fluoro-tagged peptide (400 nM) was pre-incubated with pRb (1 μM ) and unlabelled peptide added at the concentrations shown. Displacement binding curves were plotted (FIG. 4a), and were fitted to a one site competition binding model using Graphpad prism curve fitting software.

pRb/Fl-E7 = target: T3, pRb/Fl-E7 (Homo sapiens, UniProt P06400); assay: Fluorescence polarization displacement binding, Fl-E7 bound to pRb; details: fluoro-tagged peptide 400 nM pre-incubated with pRb 1 μM
T3 sequence (P06400 373-771 limits assumed): T2 sequence (P06400 373-771 limits assumed)
Experimental: as §1

RbAB = target: T4, RbAB (Homo sapiens, UniProt P06400); assay: RbAB
T4 construct: residues 372 to 589 of the A domain and 636 to 787 of the B domain; GST (with Prescission protease site) (N, cleaved yes); engineered thrombin site (LVPRGS) at the A-domain end of the A-B linker (C, cleaved yes); engineered thrombin site (LVPRGS) at the B-domain end of the A-B linker (N, cleaved yes); made in house; host or cells: E. coli
Text: (§2) Table printed on a drawing sheet, FIG. 2B
(§3) The patent's description of the figure: FIG. 2.
(§4) First copying reader's note: Binding constants of E2F fragments to the Rb constructs RbAB and RbABC; the error is printed in the same cell as the value.
Where the first naming reader finds the target: head: RbAB

RbABC = target: T5, RbABC (Homo sapiens, UniProt P06400); assay: RbABC
T5 construct: His6-RbABC (RESIDUES 380-929); made in house; host or cells: E. coli
Text: as §2, §3, §4
Where the first naming reader finds the target: head: RbABC

pRb [2] = target: T6, pRb (Homo sapiens, UniProt P06400); assay: Fluorescence polarization titration binding of fluoro-labelled peptides with pRb; details: pRb titration with fluoro-labelled peptide, one site binding model; read-out: Kd
T6 sequence (P06400 373-771 limits assumed): T2 sequence (P06400 373-771 limits assumed)
Text: Synthetic peptides were synthesised and fluoro-tagged using either N-terminal labelling with 5 carboxyfluorescein succinimidyl ester or cysteine labelling with single isomer tetramethylrhodamine-5-maleimide. […] Fluorescein fluorescence measured at λexcite=485 and λemit=520 nm
Rhodamine fluorescence measured at λexcite=545 and λemit=580 nm
Measurements were made using BMG Fluorostar plate reader fitted with polarization optic. […] Data were fitted to a one site binding model using Graphpad prism.
pRb titration curves were performed in 96-well black plates, in a total reaction volume of 100 μL. Doubling dilutions from 10 μM stock of pRb were made in binding buffer (50 mM Tris HCl, pH7.0, 100 mM NaCl, 10 mM DTT, 0.05% NP-40) and 80 μL added in triplicate to wells. 20 μL of 2 μM fluoro-peptide was added and pipetted up and down to mix. The plate was read after 1 hr incubation at room temperature.

T4 sequence (P06400 2-928 limits assumed): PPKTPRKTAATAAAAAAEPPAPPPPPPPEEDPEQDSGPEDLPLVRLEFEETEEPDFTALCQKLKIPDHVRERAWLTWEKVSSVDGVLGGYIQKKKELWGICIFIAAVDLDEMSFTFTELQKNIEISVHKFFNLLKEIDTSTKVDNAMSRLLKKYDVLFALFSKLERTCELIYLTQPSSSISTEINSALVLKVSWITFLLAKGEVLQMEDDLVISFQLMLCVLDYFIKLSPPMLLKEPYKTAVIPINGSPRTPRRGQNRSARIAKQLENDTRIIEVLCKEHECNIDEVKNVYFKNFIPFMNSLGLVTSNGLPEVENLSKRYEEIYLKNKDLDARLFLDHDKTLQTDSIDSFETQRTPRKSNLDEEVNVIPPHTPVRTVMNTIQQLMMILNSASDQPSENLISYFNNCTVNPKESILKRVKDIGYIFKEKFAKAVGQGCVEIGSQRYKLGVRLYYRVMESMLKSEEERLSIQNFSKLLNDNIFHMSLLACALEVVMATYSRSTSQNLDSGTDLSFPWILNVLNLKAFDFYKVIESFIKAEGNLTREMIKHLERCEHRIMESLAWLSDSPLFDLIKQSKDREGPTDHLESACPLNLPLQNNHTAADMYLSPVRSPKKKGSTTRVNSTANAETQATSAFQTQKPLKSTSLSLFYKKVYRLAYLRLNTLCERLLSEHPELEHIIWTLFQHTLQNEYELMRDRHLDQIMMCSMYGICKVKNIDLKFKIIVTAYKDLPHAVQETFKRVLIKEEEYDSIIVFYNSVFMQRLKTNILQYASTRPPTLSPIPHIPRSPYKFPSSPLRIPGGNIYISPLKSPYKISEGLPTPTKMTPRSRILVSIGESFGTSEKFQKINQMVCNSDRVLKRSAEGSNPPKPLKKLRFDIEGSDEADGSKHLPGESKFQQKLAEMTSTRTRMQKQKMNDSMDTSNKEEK
T5 sequence (P06400 2-928 limits assumed): as above

molar excess required to 50% compete with E2F(243-437) for binding to pRb (pRb [1])	displacement of Fl-E2F from pRb (pRb/Fl-E2F)	displacement of Fl-E7 from pRb (pRb/Fl-E7)	Kd (RbAB) [nM]	Kd (RbABC) [nM]	Kd (pRb [2]) [nM]	SMILES
15-to 30 fold	displace Fl-E2F	without disrupting F1-E7 binding	340 ± 20	300 ± 30	–	CC[C@H](C)[C@H](NC(=O)CNC(=O)[C@H](CCC(=O)O)NC(=O)CNC(=O)[C@H](CCC(=O)O)NC(=O)[C@H](CCC(=O)O)NC(=O)[C@H](CC(C)C)NC(=O)CNC(=O)[C@H](Cc1ccccc1)NC(=O)[C@H](Cc1c[nH]cn1)NC(=O)[C@H](Cc1ccc(O)cc1)NC(=O)[C@H](CC(=O)O)NC(=O)[C@@H](N)CC(C)C)C(=O)N[C@@H](CCCNC(=N)N)C(=O)N[C@@H](CC(=O)O)C(=O)N[C@@H](CC(C)C)C(=O)N[C@@H](Cc1ccccc1)C(=O)N[C@@H](CC(=O)O)C(=O)O [E2F(409-426)] (H-LDYHFGLEEGEGIRDLFD-OH)
–	–	does not displace E7	–	–	450 ± 70	CC[C@H](C)[C@H](NC(=O)CNC(=O)[C@H](CCC(=O)O)NC(=O)CNC(=O)[C@H](CCC(=O)O)NC(=O)[C@H](CCC(=O)O)NC(=O)[C@H](CC(C)C)NC(=O)CNC(=O)[C@H](Cc1ccccc1)NC(=O)[C@H](Cc1c[nH]cn1)NC(=O)[C@H](Cc1ccc(O)cc1)NC(=O)[C@H](CC(=O)O)NC(=O)[C@H](CC(C)C)NC(=O)c1ccc2c(c1)C(=O)OC21c2ccc(O)cc2Oc2cc(O)ccc21)C(=O)N[C@@H](CCCNC(=N)N)C(=O)N[C@@H](CC(=O)O)C(=O)N[C@@H](CC(C)C)C(=O)N[C@@H](Cc1ccccc1)C(=O)N[C@@H](CC(=O)O)C(=O)O [Fluorescein-E2F, N-terminal amide link-age 5 carboxyfluorescein-E2F409-426, 18′mer] (5FAM-LDYHFGLEEGEGIRDLFD-OH; C-terminus assumed)
